Assay: Observation of the monomer composition after preparation (clarity, solubility, premature polymerization)
Assay type: physicochemical
Conditions: 2 wt % in 2-octyl cyanoacrylate monomer
Description: The characteristics of the composition are observed at about one minute after preparation and later at least twenty-four hours after preparation.

solubility in the monomer (inferred from clear solution): soluble
premature polymerization of the monomer (up to at least twenty-four hours): does not cause premature polymerization
Compound: O=C(O)c1ccccc1O [salicylic acid]
